Results published in PMC11940194, “Synthesis, Antiproliferative Activity, and ADME Profiling of Novel Racemic and Optically Pure Aryl-Substituted Purines and Purine Bioisosteres” (Biomolecules, 2025).

Legend:
Type in all cases: cell-based, human
[1] = tested on: normal skin fibroblasts (HFF-1); assay: Cytotoxicity MTT assay, normal skin fibroblasts; conditions: 72 h incubation, mean ± SD
Procedure: (§1) The human ATCC tumor cell lines breast adenocarcinoma (MCF7), colorectal carcinoma (HT-29), pancreatic ductal adenocarcinoma (CFPAC-1), hepatocellular carcinoma (HepG2), and normal skin fibroblasts (HFF) derived from ATCC (American Type Culture Collection) were cultured in Dulbecco’s Modified Eagle Medium (DMEM) or Minimum Essential Medium (MEM) supplemented with 10% fetal bovine serum (FBS), 2 mM L-glutamine, 100 U/mL penicillin, and 100 µg/mL streptomycin (Lonza, Basel, Switzerland) in a humidified atmosphere with 5% CO2 at 37 °C. For the experiment, carcinoma cell lines and normal human cell lines were seeded in 96-well microtiter plates at a density of 3000 cells per well and 5000 cells per well, respectively, depending on the doubling time of the specific cell line. The test substances were then added at fivefold, tenfold dilutions (0.01 to 100 µM), freshly prepared in the growth medium on the day of testing, and incubated for a further 72 h. After 72 h of incubation, the growth rate of the cells was determined using the MTT assay according to the manufacturer’s guidelines. […] The IC50 values were calculated from the dose–response curves using linear regression analysis. The experiment was performed in tetraplicates in two individual experiments.
(§2) Newly synthesized compounds were evaluated for their cytotoxic activity in vitro against four human cancer cell lines, including human breast adenocarcinoma (MCF-7), ductal pancreatic adenocarcinoma (CFPAC-1), colorectal carcinoma (HT-29), and hepatocellular carcinoma (HepG2), as well as on non-cancerous skin fibroblasts (HFF-1), to check for non-specific toxicity. Furthermore, 5-Fluorouracil (5-FU) was used as a reference drug. The results are expressed as 50% inhibitory concentration (IC50) values and are listed in Table 2, Table 3, Table 4 and Table 5.

[2] = tested on: hepatocellular carcinoma (HepG2) cells; assay: Antiproliferative MTT assay, HepG2; conditions: for IC50: Homo sapiens, HepG2, 72 h, 72 h incubation, MTT, mean ± SD
Procedure: as §1, §2

[3] = tested on: breast adenocarcinoma (MCF7) cells; assay: Antiproliferative MTT assay, MCF-7; conditions: for IC50: Homo sapiens, MCF7, 72 h incubation, MTT, mean ± SD
Procedure: as §1, §2

[4] = tested on: pancreatic ductal adenocarcinoma (CFPAC-1) cells; assay: Antiproliferative MTT assay, CFPAC-1; conditions: for IC50: 72 h incubation, MTT, mean ± SD; for SI (CFPAC-1): SI = [IC50 HFF]/[IC50 CFPAC-1]
Procedure: as §1, §2

[5] = tested on: colorectal carcinoma (HT-29) cells; assay: Antiproliferative MTT assay, HT-29; conditions: for IC50: 72 h incubation, MTT, mean ± SD
Procedure: as §1, §2

Compound	IC50 [1]	IC50 ([1]; Homo sapiens, HFF-1, 72 h)	IC50 [2]	SI (HepG2) ([2]; SI = [IC50 HFF]/[IC50 HepG2])	IC50 [3]	SI (MCF-7) ([3]; SI = [IC50 HFF]/[IC50 MCF-7])	IC50 [4]	IC50 ([4]; Homo sapiens, CFPAC-1, 72 h)	IC50 [5]	IC50 ([5]; Homo sapiens, HT-29, 72 h)	SI (HT-29) ([5]; SI = [IC50 HFF]/[IC50 HT-29])	SI (CFPAC-1) [4]
O=c1[nH]cc(F)c(=O)[nH]1 [Compound 5-FU, 5-Fluorouracil, reference compound]	0.9 µM	0.94 µM	9 ± 1.3 µM	0.1	1 ± 0.8 µM	0.9	0.1 ± 0.1 µM	0.14 ± 0.1 µM	0.2 µM	0.23 µM	4.5	–
OCC(c1ccc(F)cc1)n1cc(Cn2ccc3ccccc32)nn1 (centres unmarked) [Compound 27a, 1-((1-(2-Hydroxy-1-(4-fluorophenyl)ethyl)-1H-1,2,3-triazol-4-yl)methyl)-1H-indole]	–	42 ± 10.5 µM	49 ± 2.5 µM	–	51 ± 6.7 µM	–	–	68 ± 12.7 µM	–	47 ± 16.9 µM	–	0.6
OC(Cn1cc(Cn2ccc3ccccc32)nn1)c1ccc(F)cc1 (centres unmarked) [Compound 27b, 1-((1-(2-Hydroxy-2-(4-fluorophenyl)ethyl)-1H-1,2,3-triazol-4-yl)methyl)-1H-indole]	–	> 100 µM	> 100 µM	–	> 100 µM	–	–	> 100 µM	–	> 100 µM	–	–
OCC(c1ccc(Cl)cc1)n1cc(Cn2ccc3ccccc32)nn1 (centres unmarked) [Compound 28a, 1-((1-(2-Hydroxy-1-(4-chlorophenyl)ethyl)-1H-1,2,3-triazol-4-yl)methyl)-1H-indole]	–	42 ± 4.6 µM	32 ± 0.2 µM	–	32 µM	–	–	30 ± 0.6 µM	–	31 ± 0.9 µM	–	1.4
OC(Cn1cc(Cn2ccc3ccccc32)nn1)c1ccc(Cl)cc1 (centres unmarked) [Compound 28b, 1-((1-(2-Hydroxy-2-(4-chlorophenyl)ethyl)-1H-1,2,3-triazol-4-yl)methyl)-1H-indol]	–	> 100 µM	66 ± 2.7 µM	–	35 ± 16.2 µM	–	–	35 ± 19.8 µM	–	46 ± 18.4 µM	–	>2.9
OCC(c1ccc(C(F)(F)F)cc1)n1cc(Cn2ccc3ccccc32)nn1 (centres unmarked) [Compound 30a, 1-((1-(2-Hydroxy-1-(4-(trifluoromethyl)phenyl)ethyl)-1H-1,2,3-triazol-4-yl)methyl)-1H-indole]	–	34 ± 1.6 µM	32 ± 3.6 µM	–	21 ± 1.6 µM	–	–	9 ± 3.3 µM	–	28 ± 1.9 µM	–	3.7
OC(Cn1cc(Cn2ccc3ccccc32)nn1)c1ccc(C(F)(F)F)cc1 (centres unmarked) [Compound 30b, 1-((1-(2-Hydroxy-2-(4-(trifluoromethyl)phenyl)ethyl)-1H-1,2,3-triazol-4-yl)methyl)-1H-indol]	–	18 ± 0.6 µM	65 ± 2.4 µM	–	22 ± 3.4 µM	–	–	27 ± 0.7 µM	–	51 ± 15.3 µM	–	0.7
OCC(c1ccc(F)cc1)n1cc(Cn2cnc3ccccc32)nn1 (centres unmarked) [Compound 32a, 1-((1-(2-Hydroxy-1-(4-fluorophenyl)ethyl)-1H-1,2,3-triazol-4-yl)methyl)-1H-benzimidazole]	–	> 100 µM	74 ± 0.6 µM	–	98 ± 2.8 µM	–	–	> 100 µM	–	> 100 µM	–	–
OC(Cn1cc(Cn2cnc3ccccc32)nn1)c1ccc(F)cc1 (centres unmarked) [Compound 32b, 1-((1-(2-Hydroxy-2-(4-fluorphenyl)ethyl)-1H-1,2,3-triazol-4-yl)methyl)-1H-benzimidazole]	–	> 100 µM	> 100 µM	–	> 100 µM	–	–	> 100 µM	–	> 100 µM	–	–
OCC(c1ccc(Cl)cc1)n1cc(Cn2cnc3ccccc32)nn1 (centres unmarked) [Compound 33a, 1-((1-(2-Hydroxy-1-(4-chlorophenyl)ethyl)-1H-1,2,3-triazol-4-yl)methyl)-1H-benzimidazole]	–	> 100 µM	50 ± 12.8 µM	–	40 ± 1.8 µM	–	–	34 ± 2.3 µM	–	63 ± 9.8 µM	–	>2.9
OC(Cn1cc(Cn2cnc3ccccc32)nn1)c1ccc(Cl)cc1 (centres unmarked) [Compound 33b, 1-((1-(2-Hydroxy-2-(4-chlorophenyl)ethyl)-1H-1,2,3-triazol-4-yl)methyl)-1H-benzimidazole]	–	64 ± 6.17 µM	> 100 µM	–	70 ± 20.5 µM	–	–	69 ± 12.1 µM	–	> 100 µM	–	0.9
